According to patent publication US20060154903A1, “Betulinol derivatives as anti-cancer agents” (priority 2004, published 2006):
Where two headings read alike, the source gives them in different places.

What was measured:
[1] = system: human prostate cancer LNCaP cell line; assay: MTT cytotoxicity assay, LNCaP; format: cell-based; conditions: LNCaP; for inhibition at 100 µM / inhibition at 10 µM / inhibition at 1 µM: Homo sapiens, read-out: Growth Inhibition %; for inhibition at 100 µM: 1 × 10^−4 M; for inhibition at 10 µM: 1 × 10^−5 M; for inhibition at 1 µM: 1 × 10^−6 M
Procedure: The human prostate cancer LNCaP, PC-3, and DU-145 cell lines, as well as human fibroblast cell line, were obtained from the American Type Culture Collection (“ATCC”) and maintained in RPMI-1640, F-12k, and MEM mediums, respectively, supplemented with 10% FBS. Cell lines were maintained at 37° C. under a humidified atmosphere and 5% CO2 for testing of the cytotoxicity of betulinol derivatives. The cytotoxicity assay was performed using MTT assay according to the instructions of ATCC protocol. Cells 1×10^5 in 0.1 ml/well were plated in 96-well culture plates (Costar) and incubated with a different dilution of betulinol derivatives for 24, 48, and 72 hours. Ten μl of 3-[4,5-dimethylthiazol-2-yl]-2,5 diphenyl tetrazolium bromide was added into each well at the end of each incubation period. The reaction product, formazan, was dissolved in the detergent, and the absorbance was read at 540 nm (Ref).
(§1) However, these compounds were not tested on prostate cancer LNCaP cell line by NCI. […] The anti-tumor activity of the compounds was determined at three doses and the total growth inhibition kill effect as pertinent of the control at 24, 48, and 72 hours as presented in Table 11.

[2] = system: carcinoma cell line CO-115 of the large intestine; conditions: cytotoxic activity; cited from earlier work
[3] = system: different human tumor cell lines; assay: In vitro cell toxicity test by NCI, tumor cell line panel; format: cell-based; conditions: tested by NCI; comparison among compounds 2, 3, 4 and 5
SF-268 = assay: In vitro cytotoxicity, CNS (2), SF-268; format: cell-based, human
NCI-H460 = assay: In vitro cytotoxicity, Lung (2), NCI-H460; format: cell-based, human
Bladder cancer cells = conditions: 1 × 10^−4 M; Bladder (1), cell line not given
MCF7 = assay: In vitro cytotoxicity, Breast (2), MCF7; format: cell-based, human
U251 = assay: In vitro cytotoxicity, CNS (2), U251; format: cell-based, human
OVCAR-5 = assay: In vitro cytotoxicity, Ovarian (2), OVCAR-5; format: cell-based, human
Procedure: as §1

DU-145 = assay: In vitro cytotoxicity, Prostate (2), DU-145; format: cell-based, human
MALME-3M = assay: In vitro cytotoxicity, Melanoma (2), MALME-3M; format: cell-based, human
TK-10 = assay: In vitro cytotoxicity, Renal (2), TK-10; format: cell-based, human
Procedure: as §1

T-47d = assay: In vitro cytotoxicity, Breast (2), T-47d; format: cell-based, human
PC-3 = assay: In vitro cytotoxicity, Prostate (2), PC-3; format: cell-based, human
HOP-92 = assay: In vitro cytotoxicity, Lung (2), HOP-92; format: cell-based, human
Procedure: as §1

NCI-H322M = assay: In vitro cytotoxicity, Lung (2), NCI-H322M; format: cell-based, human
Procedure: as §1

CAKI-1 = assay: In vitro cytotoxicity, Renal (2), CAKI-1; format: cell-based, human
Procedure: as §1

RXF 393 = assay: In vitro cytotoxicity, Renal (2), RXF 393; format: cell-based, human
OVACR-3 = assay: In vitro cytotoxicity, Ovarian (2), OVACR-3; format: cell-based, human
Procedure: as §1

184B5/HER = assay: In vitro cytotoxicity, Breast (1), 184B5/HER; format: cell-based; conditions: 1 × 10^−4 M
[4] = Solubility in DMSO diluted with culture medium (GC)
Procedure: The residue was dissolved in chloroform analyzed on GC.
Ethyl ether was then evaporated. […] Concentration of drug in the above solutions was analyzed by GC and determined from the standard solubility curve.

[5] = Tolerability of solubilized drug in mice with prostate cancer cell xenografts; format: in vivo; conditions: final concentration of 22% ethanol and 2×10^−3 mol per liter of betulonic acid
Procedure: In the present experiment, twelve male athymic mice were utilized. Seven to ten million cells, from a prostate cancer LNCaP cell line culture, were suspended homogenously in a Matrigel basement membrane matrix and transplanted in mice as xenografts. Tumors were visible within a week. […] Control groups of mice were also injected daily with a solution containing 22% ethanol in phosphate buffer solution (PBS) containing 4% albumin for a duration of 24 days. […] The volume of the tumors was determined daily using a caliper in order to observe any change in the tumor volume (FIG. 12), calculated according to the formula π/6(1×w×h). Mice were sacrificed by CO2 asphyxiation on day 24 after the first injection (FIGS. 13A-D). Total percent increase in tumor volume in drug treated and control groups was assessed (FIG. 14).

Structure (SMILES): C=C(C)[C@@H]1CC[C@]2(C(=O)O)CC[C@]3(C)[C@H](CC[C@@H]4[C@@]5(C)CC[C@H](O)C(C)(C)[C@@H]5CC[C@]43C)[C@@H]12 [Compound 2, Betulinic Acid]
- Growth Inhibition % ([1]; 24 hours, 2.5 × 10^−5 (M)): 41.0%
- Growth Inhibition % ([1]; 24 hours, 2.5 × 10^−6 (M)): 24.6%
- Growth Inhibition % ([1]; 24 hours, 2.5 × 10^−7 (M)): 11.72%
- Growth Inhibition % ([1]; 48 hours, 2.5 × 10^−5 (M)): 73.3%
- Growth Inhibition % ([1]; 48 hours, 2.5 × 10^−6 (M)): 69.4%
- Growth Inhibition % ([1]; 48 hours, 2.5 × 10^−7 (M)): 62.8%
- LD 50 [2]: 0.375 mg/mL

Structure (SMILES): C=C(C)[C@@H]1CC[C@]2(C=O)CC[C@]3(C)[C@H](CC[C@@H]4[C@@]5(C)CC[C@H](O)C(C)(C)[C@@H]5CC[C@]43C)[C@@H]12 [Compound 3, Betulin Aldehyde]
- Growth Inhibition % ([1]; 24 hours, 2.5 × 10^−5 (M)): 29.5%
- Growth Inhibition % ([1]; 24 hours, 2.5 × 10^−6 (M)): 11.0%
- Growth Inhibition % ([1]; 24 hours, 2.5 × 10^−7 (M)): 6.34%
- Growth Inhibition % ([1]; 48 hours, 2.5 × 10^−5 (M)): 72.3%
- Growth Inhibition % ([1]; 48 hours, 2.5 × 10^−6 (M)): 40.9%
- Growth Inhibition % ([1]; 48 hours, 2.5 × 10^−7 (M)): 27.6%

Structure (SMILES): C=C(C)C1CCC2(C=O)CCC3(C)C(CCC4C5(C)CCC(=O)C(C)(C)C5CCC43C)C12 (stereo not shown) [Compound 5, Betulon Aldehyde]
- cell growth inhibitory properties against different human tumor cell lines [3]: most effective inhibition of cell growth without selective activity
- Percent Killed (SF-268; 1 × 10^−4 M): 27%
- Percent Killed (NCI-H460; 1 × 10^−4 M): 89%
- Percent Killed (Bladder cancer cells): 29%
- Percent Killed (MCF7; 1 × 10^−4 M): 68%

Structure (SMILES): C=C(C)[C@@H]1CC[C@]2(COC(C)=O)CC[C@]3(C)[C@H](CC[C@@H]4[C@@]5(C)CC[C@H](OC(C)=O)C(C)(C)[C@@H]5CC[C@]43C)[C@@H]12 [Compound 6, Betulin Diacetate]
- Percent Killed (U251; 1 × 10^−4 M): 100%
- Percent Killed (U251; 1 × 10^−5 M): 100%
- Percent Killed (U251; 1 × 10^−6 M): 100%
- Percent Killed (U251; 1 × 10^−7 M): 100%
- Percent Killed (OVCAR-5; 1 × 10^−4 M): 100%
- Percent Killed (OVCAR-5; 1 × 10^−5 M): 100%
- Percent Killed (OVCAR-5; 1 × 10^−6 M): 100%
- Percent Killed (DU-145; 1 × 10^−4 M): 100%
- Percent Killed (DU-145; 1 × 10^−5 M): 100%
- Percent Killed (DU-145; 1 × 10^−6 M): 100%
- Percent Killed (DU-145; 1 × 10^−7 M): 100%
- Percent Killed (DU-145; 1 × 10^−8 M): 27%
- Percent Killed (MALME-3M; 1 × 10^−4 M): 100%
- Percent Killed (MALME-3M; 1 × 10^−5 M): 100%
- Percent Killed (MALME-3M; 1 × 10^−6 M): 100%
- Percent Killed (MALME-3M; 1 × 10^−7 M): 100%
- Percent Killed (MALME-3M; 1 × 10^−8 M): 98%
- Percent Killed (SF-268; 1 × 10^−4 M): 100%
- Percent Killed (SF-268; 1 × 10^−5 M): 100%
- Percent Killed (SF-268; 1 × 10^−6 M): 100%
- Percent Killed (SF-268; 1 × 10^−7 M): 75%
- Percent Killed (SF-268; 1 × 10^−8 M): 15%
- Percent Killed (TK-10; 1 × 10^−4 M): 100%
- Percent Killed (TK-10; 1 × 10^−5 M): 100%
- Percent Killed (TK-10; 1 × 10^−6 M): 49%
- Percent Killed (T-47d; 1 × 10^−4 M): 100%
- Percent Killed (T-47d; 1 × 10^−5 M): 100%
- Percent Killed (T-47d; 1 × 10^−6 M): 100%
- Percent Killed (T-47d; 1 × 10^−7 M): 23%
- Percent Killed (PC-3; 1 × 10^−4 M): 25%
- Percent Killed (PC-3; 1 × 10^−5 M): 15%
- Percent Killed (NCI-H460; 1 × 10^−4 M): 100%
- Percent Killed (NCI-H460; 1 × 10^−5 M): 100%
- Percent Killed (NCI-H460; 1 × 10^−6 M): 100%
- Percent Killed (NCI-H460; 1 × 10^−7 M): 25%
- Percent Killed (HOP-92; 1 × 10^−4 M): 100%
- Percent Killed (HOP-92; 1 × 10^−5 M): 100%
- Percent Killed (HOP-92; 1 × 10^−6 M): 100%
- Percent Killed (NCI-H322M; 1 × 10^−4 M): 100%
- Percent Killed (NCI-H322M; 1 × 10^−5 M): 100%
- Percent Killed (NCI-H322M; 1 × 10^−6 M): 100%
- Percent Killed (CAKI-1; 1 × 10^−4 M): 100%
- Percent Killed (CAKI-1; 1 × 10^−5 M): 100%
- Percent Killed (CAKI-1; 1 × 10^−6 M): 100%
- Percent Killed (RXF 393; 1 × 10^−4 M): 100%
- Percent Killed (RXF 393; 1 × 10^−5 M): 100%
- Percent Killed (RXF 393; 1 × 10^−6 M): 100%
- Percent Killed (RXF 393; 1 × 10^−7 M): 97%
- Percent Killed (RXF 393; 1 × 10^−8 M): 15%
- Percent Killed (MCF7; 1 × 10^−4 M): 100%
- Percent Killed (MCF7; 1 × 10^−5 M): 100%
- Percent Killed (MCF7; 1 × 10^−6 M): 100%
- Percent Killed (MCF7; 1 × 10^−7 M): 100%
- Percent Killed (OVACR-3; 1 × 10^−4 M): 100%
- Percent Killed (OVACR-3; 1 × 10^−5 M): 100%
- Percent Killed (OVACR-3; 1 × 10^−6 M): 96%

Structure (SMILES): C=C(C)C1CCC2(COC)CCC3(C)C(CCC4C5(C)CCC(OC)C(C)(C)C5CCC43C)C12 (stereo not shown) [Compound 7, Betulin Dimethyl ether (Cornelon)]
- Percent Killed (SF-268; 1 × 10^−4 M): 100%
- Percent Killed (184B5/HER): Toxic
- Percent Killed (NCI-H460; 1 × 10^−4 M): 80%
- Percent Killed (Bladder cancer cells): 30%
- Percent Killed (MCF7; 1 × 10^−4 M): 97%

Structure (SMILES): C=C(C)[C@@H]1CC[C@]2(CO)CC[C@]3(C)[C@H](CC[C@@H]4[C@@]5(C)CC[C@H](OC(C)=O)C(C)(C)[C@@H]5CC[C@]43C)[C@@H]12 [Compound 8, 3-Acetoxy Betulin]
- Growth Inhibition % ([1]; 24 hours, 2.5 × 10^−5 (M)): 12.4%
- Growth Inhibition % ([1]; 24 hours, 2.5 × 10^−6 (M)): 10.4%
- Growth Inhibition % ([1]; 24 hours, 2.5 × 10^−7 (M)): 0%
- Growth Inhibition % ([1]; 48 hours, 2.5 × 10^−5 (M)): 28.3%
- Growth Inhibition % ([1]; 48 hours, 2.5 × 10^−6 (M)): 44.7%
- Growth Inhibition % ([1]; 48 hours, 2.5 × 10^−7 (M)): 17.4%

Structure (SMILES): C=C(C)C1CCC2(C(=O)NCCCCC(NC(=O)OC(C)(C)C)C(=O)O)CC[C@]3(C)[C@H](CC[C@@H]4[C@@]5(C)CCC(=O)C(C)(C)[C@@H]5CC[C@]43C)C12 (stereo partly shown) [Monomer-Boc]
- Concentration of drug (mg/mL) [4]: 0.7 mg/mL
- Concentration of drug (mol/L) [4]: 0.001 mol/L
- tolerability in mice [5]: well tolerated

Structure (SMILES): C=C(C)C1CCC2(C(=O)NCCCCC(NC(=O)OC(C)(C)C)C(=O)OC)CC[C@]3(C)[C@H](CC[C@@H]4[C@@]5(C)CCC(=O)C(C)(C)[C@@H]5CC[C@]43C)C12 (stereo partly shown) [Monomer]
- inhibition at 100 µM ([1]; 24 h, 24 hours): 76.5 ± 22.6%
- inhibition at 10 µM ([1]; 24 h, 24 hours): 19 ± 14.4%
- inhibition at 1 µM ([1]; 24 h, 24 hours): 5.5 ± 7.32%
- inhibition at 100 µM ([1]; 48 h, 48 hours): ~80%
- inhibition at 10 µM ([1]; 48 h, 48 hours): 36.8%
- inhibition at 1 µM ([1]; 48 h, 48 hours): 15 ± 11.2%
- inhibition at 100 µM ([1]; 72 h, 72 hours): 79.2 ± 16.5%
- inhibition at 10 µM ([1]; 72 h, 72 hours): 40.5 ± 33.6%
- inhibition at 1 µM ([1]; 72 h, 72 hours): 17.2 ± 32.5%
